What all share (test): cAMP accumulation, single-point mutated GIPR
Holding throughout (type): cell-based

Assay [1] addresses T1, GIPR mutants (Homo sapiens, UniProt P48546, R131E).
T1 construct: expressed in transfected cells; host or cells: HEK-293T
T1 sequence (P48546 22-466 R131E): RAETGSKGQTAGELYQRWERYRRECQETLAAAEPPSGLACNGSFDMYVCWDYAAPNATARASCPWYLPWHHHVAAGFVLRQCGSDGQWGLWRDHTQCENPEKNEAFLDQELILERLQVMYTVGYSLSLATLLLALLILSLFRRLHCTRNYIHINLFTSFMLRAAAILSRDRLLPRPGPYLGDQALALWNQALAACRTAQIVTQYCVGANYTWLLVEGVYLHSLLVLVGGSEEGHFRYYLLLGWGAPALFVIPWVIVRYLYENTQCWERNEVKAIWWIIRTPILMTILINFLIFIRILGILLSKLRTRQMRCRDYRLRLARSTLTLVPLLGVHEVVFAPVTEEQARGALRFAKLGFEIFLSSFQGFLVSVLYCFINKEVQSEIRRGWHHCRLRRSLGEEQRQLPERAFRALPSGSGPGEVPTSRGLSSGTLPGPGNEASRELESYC
Conditions: GIPR R131(1.33b)E. As for the experimental part: (§1) HEK-293T cells were maintained at 37°C in 5% CO2 incubator and seeded onto 6-well cell […]
(§2) culture plates before transfection. After overnight culture, the cells were transiently transfected […]
(§3) with various constructs using Lipofectamine 2000 transfection reagent (Invitrogen). After 24 h, […]
(§4) the transfected cells were seeded onto 384-microtiter plates at a density of 3,000 cells per well […]
(§5) in stimulation buffer (HBSS supplemented with 5 mM HEPES, 0.1% (w/v) casein and 0.5 mM […]
(§6) 3-isobutyl-1-methylxanthine). Different concentrations of retatrutide in stimulation buffer were […]
(§7) added, and the stimulation lasted for 40 min. The reaction was stopped by addition of cAMP […]
(§8) detection buffer containing Eu-cAMP tracer and ULight-anti-cAMP. Plates were then incubated for […]
(§9) 60 min at RT. Time-resolved FRET signals were measured at 620 nm and 665 nm, respectively, by […]
(§10) an EnVision multilabel plate reader (PerkinElmer). Data were analyzed in GraphPad PRISM 9.5 […]
(§11) and all values were normalized to that of the wild-type (WT).
(§12) Supplementary Fig. 5 Effects of receptor mutation on retatrutide-induced cAMP […]
(§13) accumulation. a-c, Signaling profiles of GLP-1R (a), GIPR (b) and GCGR (c) mutants. cAMP […]
(§14) accumulation was measured in wild-type (WT) and single-point mutated GLP-1R, GIPR or […]
(§15) GCGR expressing HEK-293T cells. cAMP levels were normalized to the maximum response […]
(§16) of the WT and dose-response curves were analyzed using a three-parameter logistic equation.
(§17) Data were generated and graphed as means ± S.E.M. of at least three independent experiments performed in quadruplicate.
(§18) (1 picture or pasted object on this page, not shown here)
(§19) Supplementary Ta b l e S 5 Effects of the ligand-binding pocket residue mutation on retatrutide- […]
(§20) induced cAMP signaling at GLP-1R, GIPR or GCGR. […]
(§21) cAMP levels were normalized to the maximum response of the wild-type (WT) and dose-response […]
(§22) curves were analyzed using a three-parameter logistic equation to obtain pEC50 and Emax values. The […]
(§23) experiments were carried out independently at least three times. Data shown are means ± S.E.M. One- […]
(§24) way ANOVA was used to determine statistical difference. N.D., values that could not be determined due […]
(§25) to incomplete curve fits. *P< 0.05, **P< 0.01, ***P< 0.001 and ****P<0.0001.

Assay [2] addresses T2, GIPR mutants (Homo sapiens, UniProt P48546, E354A).
T2 construct: expressed in transfected cells; host or cells: HEK-293T
Conditions: GIPR E354(6.53b)A; HEK-293T, 40 min, TR-FRET; mean ± S.E.M., n at least 3. On the procedure:
as §1, §2, §3, §4, §5, §6, §7, §8, §9, §10, §11, §12, §13, §14, §15, §16, §17, §18, §19, §20, §21, §22, §23, §24, §25
Background: TR-FRET usually uses a lanthanide donor and a delayed reading to cut background.

The target of assay [3] is T3, GIPR mutants (Homo sapiens, UniProt P48546, Y36A).
T3 construct: expressed in transfected cells; host or cells: HEK-293T
T3 sequence (P48546 22-466 Y36A): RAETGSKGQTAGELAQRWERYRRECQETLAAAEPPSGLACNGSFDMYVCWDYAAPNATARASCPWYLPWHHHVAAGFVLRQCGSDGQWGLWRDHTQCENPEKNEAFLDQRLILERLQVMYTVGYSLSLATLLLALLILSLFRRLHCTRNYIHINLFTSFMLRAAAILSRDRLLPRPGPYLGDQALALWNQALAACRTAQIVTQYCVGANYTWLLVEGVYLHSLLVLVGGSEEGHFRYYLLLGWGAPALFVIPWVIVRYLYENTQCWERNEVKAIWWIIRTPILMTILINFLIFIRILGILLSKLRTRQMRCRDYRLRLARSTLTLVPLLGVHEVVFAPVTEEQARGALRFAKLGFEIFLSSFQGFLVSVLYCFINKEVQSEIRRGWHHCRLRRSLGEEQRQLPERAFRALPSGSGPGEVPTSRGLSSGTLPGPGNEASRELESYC
Conditions: GIPR Y36(ECD)A; HEK-293T, 40 min, TR-FRET; mean ± S.E.M., n at least 3. As for the experimental part:
as §1, §2, §3, §4, §5, §6, §7, §8, §9, §10, §11, §12, §13, §14, §15, §16, §17, §18, §19, §20, §21, §22, §23, §24, §25

Assay [4] deals with T4, GIPR mutants (Homo sapiens, UniProt P48546, R289A).
T4 construct: expressed in transfected cells; host or cells: HEK-293T
T4 sequence (P48546 22-466 R289A): as the sequence (P48546 22-466 Y36A) above, with A15Y, R268A counted along it
Conditions: GIPR R289(ECL2)A, HEK-293T, 40 min, TR-FRET, mean ± S.E.M., n at least 3. As for the experimental part:
as §1, §2, §3, §4, §5, §6, §7, §8, §9, §10, §11, §12, §13, §14, §15, §16, §17, §18, §19, §20, §21, §22, §23, §24, §25

Assay [5] addresses T5, GIPR mutants (Homo sapiens, UniProt P48546, R196Y).
T5 construct: expressed in transfected cells; host or cells: HEK-293T
T5 sequence (P48546 22-466 R196Y): T1 sequence (P48546 22-466 R131E) with E110R, R175Y
Conditions: GIPR R196(ECL1)Y. On the procedure: as §1, §2, §3, §4, §5, §6, §7, §8, §9, §10, §11, §12, §13, §14, §15, §16, §17, §18, §19, §20, §21, §22, §23, §24, §25

Assay [6] deals with T6, GIPR mutants (Homo sapiens, UniProt P48546, P195K).
T6 construct: expressed in transfected cells; host or cells: HEK-293T
T6 sequence (P48546 22-466 P195K): as the sequence (P48546 22-466 Y36A) above, with A15Y, P174K counted along it
Particulars: GIPR P195(2.72b)K, relative to WT; pEC50 and Emax N.D. (incomplete curve fits). As for the experimental part:
as §1, §2, §3, §4, §5, §6, §7, §8, §9, §10, §11, §12, §13, §14, §15, §16, §17, §18, §19, §20, §21, §22, §23, §24, §25

Setting [7] is: HEK-293T, 40 min, TR-FRET, mean ± S.E.M., n at least 3.

SMILES strings stand for the structures. Residue numbers refer to the chain shown, from its start.

Experimental findings from article PMC11255275, “Structural insights into the triple agonism at GLP-1R, GIPR and GCGR manifested by retatrutide” (Cell Discovery, 2024) are described below.

As a reminder, the EC50 is the concentration giving half of the maximal effect. A high value points to weaker potency.

T2 sequence (P48546 22-466 E354A): as the sequence (P48546 22-466 Y36A) above, with A15Y, E333A counted along it

As to `CC[C@H](C)[C@H](NC(=O)[C@H](Cc1ccccc1)NC(=O)[C@H](C)NC(=O)C(C)(C)NC(=O)[C@H](CCC(N)=O)NC(=O)[C@H](C)NC(=O)[C@H](CCCCNC(=O)COCCOCCNC(=O)CC[C@H](NC(=O)CCCCCCCCCCCCCCCCCCC(=O)O)C(=O)O)NC(=O)[C@H](CCCCN)NC(=O)[C@H](CC(=O)O)NC(=O)[C@H](CC(C)C)NC(=O)[C@](C)(CC(C)C)NC(=O)[C@@H](NC(=O)[C@H](CO)NC(=O)[C@H](Cc1ccc(O)cc1)NC(=O)[C@H](CC(=O)O)NC(=O)[C@H](CO)NC(=O)[C@@H](NC(=O)[C@H](Cc1ccccc1)NC(=O)[C@@H](NC(=O)CNC(=O)[C@H](CCC(N)=O)NC(=O)C(C)(C)NC(=O)[C@@H](N)Cc1ccc(O)cc1)[C@@H](C)O)[C@@H](C)O)[C@@H](C)CC)C(=O)N[C@@H](CCC(=O)O)C(=O)N[C@@H](Cc1ccc(O)cc1)C(=O)N[C@@H](CC(C)C)C(=O)N[C@@H](CC(C)C)C(=O)N[C@@H](CCC(=O)O)C(=O)NCC(=O)NCC(=O)N1CCC[C@H]1C(=O)N[C@@H](CO)C(=O)N[C@@H](CO)C(=O)NCC(=O)N[C@@H](C)C(=O)N1CCC[C@H]1C(=O)N1CCC[C@H]1C(=O)N1CCC[C@H]1C(=O)N[C@@H](CO)C(N)=O` [retatrutide], the “change of retatrutide potency by mutation” value on GIPR mutants [1] (relative to WT, modestly) was “decreased”. For the same compound, the “Emax ± S.E.M. (% WT)” value on GIPR mutants [1] (setting [7]) is 98.44 ± 3.88 % WT; on GIPR mutants [2] it was 99.43 ± 4.28 % WT; on GIPR mutants [3], 99.10 ± 3.86 % WT; at GIPR mutants [4], 98.56 ± 4.01 % WT; on GIPR mutants [5] (setting [7]), 92.16 ± 5.36 % WT. Also, the EC50 on GIPR mutants [1] (HEK-293T, 40 min, TR-FRET, mean ± S.E.M., n at least 3, **P < 0.01) was 9.33 pM; on GIPR mutants [2], 5.89 pM; at GIPR mutants [3] it was 3.09 pM; on GIPR mutants [4] (***P < 0.001) it was 12.6 pM; on GIPR mutants [5] (HEK-293T, 40 min, TR-FRET, mean ± S.E.M., n at least 3, ****P < 0.0001), 245 pM. In addition, at GIPR mutants [5] (relative to WT), the “decrease of retatrutide potency by mutation” value came to 107.7 fold. Also, the “change of GIPR-mediated cAMP accumulation by mutation” value on GIPR mutants [6] is given as “markedly decreased”.
